{"source": "patent US20200345701A1", "about": "“USE OF STATINS IN OVERCOMING RESISTANCE TO BETA-LACTAM ANTIBIOTICS IN BACTERIAL SPECIES SYNTHETIZING ISOPRENOIDS USING THE MEVALONATE SYNTHETIC PATHWAY” (CONSEJO SUPERIOR DE INVESTIGACIONES CIENTIFICAS (CSIC), priority 2017, published 2020)", "key": {"[1]": {"tested_on": "MRSA", "type": "cell-based, Staphylococcus aureus", "conditions": "β-lactam antibiotics; treated versus untreated MRSA"}, "[2]": {"tested_on": "FloA membrane foci", "experiment": "FloA membrane foci count by fluorescence microscopy", "type": "cell-based, Staphylococcus aureus", "conditions": "ZA 50 μM", "experimental": "Cells from liquid cultures were washed in PBS and resuspended in 0.5 ml 4% paraformaldehyde (6 min, room temperature). Samples were washed twice and resuspended in 0.5 ml PBS. Images were acquired on a Leica DMI6000B microscope equipped with a CRT6000 illumination system, with a HCX PL APO oil immersion objective (100×1.47) and a color camera DFC630FX. Leica Application Suite Advanced Fluorescence\nSoftware was used for linear image processing. The YFP signal was detected (excitation filter 489 nm, emission filter 508 nm). Excitation times were 567 msec. Transmitted light images were taken with 55 msec excitation time."}, "[3]": {"tested_on": "Staphylococcus aureus MRSA strain USA300", "experiment": "In vitro MRSA cell growth inhibition (bacterial count CFU/ml), statin or ZA with oxacillin", "type": "cell-based", "conditions": "for MRSA growth (CFU/ml) with oxacillin plus compound: combination with the β-lactam antibiotic oxacillin"}, "[4]": {"tested_on": "S. aureus", "experiment": "Growth curves of S. aureus cultures at different ZA concentrations", "type": "cell-based, Staphylococcus aureus", "conditions": "ZA 50 μM; TSB medium, 36 h, 37° C."}, "[5]": {"tested_on": "FloA and PBP2a", "experiment": "FloA and PBP2a oligomerization by sucrose gradient centrifugation", "conditions": "membrane fraction of ZA-treated versus untreated cells", "method": "FloA oligomerization in S. aureus WT and Δcrt mutant and PBP2a oligomerization were analyzed in sucrose gradient assays. S. aureus cultures were harvested and cells crosslinked with 0.5 mM DSP (dithiobis(succinimidyl propionate)) before cell lysis and membrane fraction purification. Purified membrane fractions (200 μg) solubilized with 0.5% DDM were layered on a 5-40% linear sucrose gradient generated by a Biocomp gradient maker, then centrifuged (Beckman; 100,000 g, 16 h, 4° C.). Fractions (1 ml) were collected from the bottom of the gradient and proteins associated with each fraction were precipitated with 10% trichloroacetic acid (TCA). Protein fractions were dried and resuspended in PBS prior to immunoblot analyses."}, "[6]": {"tested_on": "PBP2a", "type": "cell-based", "conditions": "ZA-treated MRSA cells; bands at ~80 kDa"}, "[7]": {"tested_on": "MRSA ΔfloA mutant", "experiment": "β-lactam antibiotic sensitivity of MRSA ΔfloA mutant versus WT", "type": "cell-based, Staphylococcus aureus", "conditions": "antibiotic concentrations that typically inhibit MSSA growth"}, "[8]": {"tested_on": "MRSA ΔfloA mutant", "conditions": "mice infected with ΔfloA mutant, 3×10^7 CFU; oxacillin 200 mg/kg/day; three days post-infection", "method": "(§1) Female BALB/c mice (8-10 weeks old, 16-19 g weight) were purchased (Charles River Laboratories), Mice were housed in polypropylene cages in standardized lighting conditions and had ad libitum access to food and water.\n(§2) The S. aureus strains were cultured on BHI medium (18 h, 37° C.). Cells were collected, washed three times with PBS and diluted to OD600 nm=0.05. Viable cell counts were determined by plating inoculum dilutions on TSB agar plates. For survival experiments, cohorts of 10 mice were infected with 150 μl of S. aureus cultures (3×10^7 cells) via intravenous injection. Each strain was used to infect one mouse cohort. Doses of oxacillin (200 mg/kg) alone or in combination with ZA (50 mg/Kg or 20 mg/Kg) were injected intraperitoneally (i.p.) daily for 1-4 days. […] The first dose was administered 30 min after the bacterial inoculation. Infections were allowed to progress until severe infection signs occurred or to a 3-day endpoint. Mice were sacrificed when they met the following criteria: 1) loss of at least 20% body weight, 2) loss of at least 15% body weight and ruffled fur, 3) loss of at least 10% body weight and hunched posture, or 4) 4 days post-infection."}, "[9]": {"tested_on": "MRSA WT strain", "experiment": "Murine infection model, survival, WT strain", "conditions": "mice infected with WT, 3×10^7 CFU; oxacillin 200 mg/kg/day; three days post-infection", "method": "as §1, §2"}, "[10]": {"tested_on": "ΔEA4 flotillin variant", "type": "binding, Staphylococcus aureus"}, "[11]": {"target": "ΔMAR flotillin variant", "type": "binding, Staphylococcus aureus"}, "[12]": {"target": "ΔEA4 flotillin variant", "type": "binding, Staphylococcus aureus", "remark": "listed apart in the source"}, "[13]": {"tested_on": "ΔMAR flotillin variant", "type": "binding, Staphylococcus aureus", "remark": "listed apart in the source"}, "[14]": {"tested_on": "ΔPHB flotillin variant", "type": "binding, Staphylococcus aureus"}, "[15]": {"target": "FloA (WT flotillin) (Staphylococcus aureus, UniProt Q99TS3)", "sequence (Q99TS3 whole entry, looked up)": "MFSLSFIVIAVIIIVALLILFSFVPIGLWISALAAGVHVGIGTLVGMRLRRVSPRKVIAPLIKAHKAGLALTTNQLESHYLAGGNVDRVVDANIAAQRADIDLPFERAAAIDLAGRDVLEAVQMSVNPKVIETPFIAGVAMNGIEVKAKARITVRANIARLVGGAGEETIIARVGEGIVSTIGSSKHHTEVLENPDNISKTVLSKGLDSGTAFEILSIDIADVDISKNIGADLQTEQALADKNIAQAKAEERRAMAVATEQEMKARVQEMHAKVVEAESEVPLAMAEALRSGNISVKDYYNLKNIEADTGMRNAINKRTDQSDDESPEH", "type": "binding", "conditions": "purified WT FloA; sucrose gradient, FloA immunodetection in lipid fraction"}, "[16]": {"target": "ΔPHB flotillin variant", "type": "binding, Staphylococcus aureus", "remark": "listed apart in the source"}}, "note": "pKd: −log10 of the molar value. “Also recorded” adds a separate entry of the source."}
{"smiles": "C=C(CC[C@]12O[C@H](C(=O)O)[C@@](O)(C(=O)O)[C@](C(=O)O)(O1)[C@H](OC(=O)/C=C/[C@@H](C)C[C@@H](C)CC)[C@H]2O)[C@@H](OC(C)=O)[C@H](C)Cc1ccccc1", "note": "[ZA, Zaragozic acid]", "values": [{"measurement": "antibiotic sensitivity profile of treated MRSA cultures", "setting": "[1]", "value": "resembled those of the ΔfloA mutant"}, {"measurement": "number of FloA membrane foci", "setting": "[2]", "value": "reduced"}, {"measurement": "effect of increasing compound concentration on antibiotic effect of oxacillin", "setting": "[3]; MRSA cultures, combination with oxacillin", "value": "potentiated the antibiotic effect of oxacillin"}, {"measurement": "MRSA growth (CFU/ml) with oxacillin plus compound", "setting": "[3]", "value": "inhibited"}, {"measurement": "MRSA growth (CFU/ml) in the presence of compound alone", "setting": "[3]; without oxacillin", "value": "unaltered"}, {"measurement": "S. aureus growth", "setting": "[4]", "value": "no growth defects; also recorded: did not affect"}, {"measurement": "oligomerization of flotillin and PBP2a (sucrose gradient)", "setting": "[5]", "value": "reduced oligomerization of flotillin and PBP2a"}, {"measurement": "PBP2a oligomerization (BN-PAGE)", "setting": "[6]", "value": "deficient PBP2a oligomerization"}]}
{"smiles": "CC1(C)S[C@@H]2[C@H](NC(=O)[C@H](N)c3ccccc3)C(=O)N2[C@H]1C(=O)O", "note": "[ampicillin]", "values": [{"measurement": "growth / resistance of ΔfloA compared to WT in presence of β-lactam antibiotic", "setting": "[7]", "value": "comparable resistance"}]}
{"smiles": "CC(C)c1c(C(=O)Nc2ccccc2)c(-c2ccccc2)c(-c2ccc(F)cc2)n1CC[C@@H](O)C[C@@H](O)CC(=O)O", "note": "[atorvastatin]", "values": [{"measurement": "MRSA growth (CFU/ml) with oxacillin plus compound", "setting": "[3]", "value": "did not alter the MRSA antibiotic-resistant phenotype"}]}
{"smiles": "Cc1onc(-c2c(Cl)cccc2Cl)c1C(=O)N[C@@H]1C(=O)N2[C@@H]1SC(C)(C)[C@@H]2C(=O)O", "note": "[dicloxacillin]", "values": [{"measurement": "growth / resistance of ΔfloA compared to WT in presence of β-lactam antibiotic", "setting": "[7]", "value": "severe growth inhibition"}]}
{"smiles": "Cc1onc(-c2c(F)cccc2Cl)c1C(=O)N[C@@H]1C(=O)N2[C@@H]1SC(C)(C)[C@@H]2C(=O)O", "note": "[flucoxacillin]", "values": [{"measurement": "growth / resistance of ΔfloA compared to WT in presence of β-lactam antibiotic", "setting": "[7]", "value": "severe growth inhibition"}]}
{"smiles": "COc1cccc(OC)c1C(=O)N[C@@H]1C(=O)N2[C@@H]1SC(C)(C)[C@@H]2C(=O)O", "note": "[methicillin]", "values": [{"measurement": "growth / resistance of ΔfloA compared to WT in presence of β-lactam antibiotic", "setting": "[7]", "value": "severe growth inhibition"}]}
{"smiles": "CCOc1ccc2ccccc2c1C(=O)N[C@@H]1C(=O)N2[C@@H]1SC(C)(C)[C@@H]2C(=O)O", "note": "[nafcillin]", "values": [{"measurement": "growth / resistance of ΔfloA compared to WT in presence of β-lactam antibiotic", "setting": "[7]", "value": "severe growth inhibition"}]}
{"smiles": "Cc1onc(-c2ccccc2)c1C(=O)N[C@@H]1C(=O)N2[C@@H]1SC(C)(C)[C@@H]2C(=O)O", "note": "[oxacillin]", "values": [{"measurement": "survival rate", "setting": "[8]", "value": 70, "unit": "%"}, {"measurement": "growth / resistance of ΔfloA compared to WT in presence of β-lactam antibiotic", "setting": "[7]", "value": "severe growth inhibition"}, {"measurement": "survival rate", "setting": "[9]", "value": 10, "unit": "%"}]}
{"smiles": "CCC(C)CCCCCCCCCCC(=O)OC[C@H]1O[C@@H](OC(=O)/C(C)=C/C=C/C(C)=C/C=C/C(C)=C/C=C/C=C(C)/C=C/C=C(\\C)CCC=C(C)C)[C@H](O)[C@@H](O)[C@@H]1O", "note": "(stereo partly drawn) [staphyloxanthin]", "values": [{"measurement": "lipid-protein interaction in flotation assay", "setting": "[10]", "value": "interacted strongly"}, {"measurement": "pKd", "setting": "[11]", "value": 7.92}, {"measurement": "pKd", "setting": "[12]", "value": 8.03}, {"measurement": "lipid-protein interaction in flotation assay", "setting": "[13]", "value": "interacted strongly"}, {"measurement": "lipid-protein interaction in flotation assay", "setting": "[14]", "value": "showed no tendency to interact"}, {"measurement": "lipid-protein interaction in flotation assay", "setting": "[15]", "value": "interacted strongly"}, {"measurement": "pKd", "setting": "[16]", "value": 6.03}]}
